{"source": "patent US10479805B2", "about": "“Beta-lactamase inhibitor” (priority 2016, dated 2019)", "experiment_in_all_cases": "Broth microdilution MIC, cephalosporin alone", "format_in_all_cases": "cell-based", "key": {"[1]": {"system": "E. coli expressing class A ESBLCTXM15", "conditions": "Escherichia coli", "excerpt": "(§1) To determine that ability of the test compound to inhibit the growth of beta-lactamase-producing bacterial strain, traditional cell-based screening experiments were employed. Six bacterial strains producing beta-lactamases were used: Escherichia coli expressing class an extended spectrum beta-lactamases (esbl) ctxm15 and shv5 (E. coli), Klebsiella pneumoniae expressing class a carbapenem enzyme kpc2, Pseudomonas aeruginosa expressing class B VIM-2, Enterobacter cloacae expressing class C P99+, and Acinetobacter baumannii expressing class D OXA-23 were studied. […] This experiment was performed in Cation Adjusted Mueller Hinton Broth (CAMHB, BD #212322, BD Diagnostic Systems, Sparks, Md.). The bacterial strains were grown in CAMBH broth for […]. All six strains were grown in the presence of 50 μg/mL ampicillin to ensure that resistance was maintained. At the same time, the test compound was diluted into 0.1 mg/mL stock solution in DMSO. The compound was added to the microplate and diluted in a 2-fold series in CAMHB to a final concentration of 32 to 0.25 μg/mL. A cover layer containing cephalosporin CAMHB was added to the compound at a termination concentration of 8 μg/mL or […]. […] The MIC reading of the dose escalation test of the test compound indicates the concentration of the analyte sufficient to inhibit beta-lactamase activity and protect the original antibacterial activity of cephalosporins. Six plates are required for each compound and each plate is used for one bacterial strain. In addition to the dose escalation test of the test compound, the MIC of a group of cephalosporins was tested to ensure that the strain remained consistent in behavior between the test and the test. Once the test compound and cephalosporin are added, the plates may be inoculated. The inoculation was carried out according to the CLSI broth microdilution method."}, "[2]": {"system": "Acinetobacter baumannii expressing class D enzyme OXA-23", "excerpt": "as §1"}, "[3]": {"system": "Enterobacter cloacae expressing class C P99+AmpC", "excerpt": "as §1"}, "[4]": {"system": "Escherichia coli expressing class A ESBL SHV5", "conditions": "read-out: MIC alone", "excerpt": "as §1"}, "[5]": {"system": "Klebsiella pneumoniae expressing carbapenem class A KPC2", "conditions": "antibiotic alone, K. pneumoniae KPC2, CAMHB", "excerpt": "as §1"}, "[6]": {"system": "Pseudomonas aeruginosa expressing class B enzyme VIM-2", "excerpt": "as §1"}}, "data": [{"smiles": "CO/N=C(\\C(=O)N[C@@H]1C(=O)N2C(C(=O)O)=C(COC(C)=O)CS[C@H]12)c1csc(N)n1", "note": "[cefotaxime]", "values": [{"measurement": "MIC", "setting": "[1]", "result": 1020, "unit": "µg/mL"}]}, {"smiles": "CC(C)(O/N=C(\\C(=O)N[C@@H]1C(=O)N2C(C(=O)[O-])=C(C[n+]3ccccc3)CS[C@H]12)c1csc(N)n1)C(=O)O", "note": "[Ceftazidime]", "values": [{"measurement": "MIC", "setting": "[2]", "result": "> 256", "unit": "µg/mL"}, {"measurement": "MIC", "setting": "[3]", "result": 256, "unit": "µg/mL"}, {"measurement": "MIC", "setting": "[4]", "result": "> 1020", "unit": "µg/mL"}, {"measurement": "MIC", "setting": "[5]", "result": 32, "unit": "µg/mL"}, {"measurement": "MIC", "setting": "[6]", "result": "> 256", "unit": "µg/mL"}]}]}
